Assay results taken from ChEMBL document CHEMBL3885861, “Open TG-GATES”.

Organism: Rattus norvegicus
Test: Open TG-GATES - Regimen: Daily Repeat
Assay type: toxicity, organism-based, Sprague-Dawley
Set-up: regimen Daily Repeat, gender Male, age 6 weeks
Settings: in vivo, po, route gavage; for TC / TG / TP / gamma-GTP / A/G / ALP / ALT / AST / BUN / CRE / Ca / Cl / GLC / IP / K / LDH / Na / PL / RALB: tissue Plasma; for APTT / Bas / Eos / Fbg / Hb / Ht / Lym / MCH / MCHC / MCV / Mono / Neu / PT / Plat / RBC / Ret / WBC: tissue Blood; for KIDNEY_L / KIDNEY_R / KIDNEY_TOTAL: tissue Kidney; for LIVER: tissue Liver
[1] = 100 mg/kg, […], dose level Low, time 28 day
[2] = 300 mg/kg, 72 h, dose level Middle, time 3 day
[3] = 300 mg/kg, […], dose level Middle, time 7 day
[4] = 300 mg/kg, […], dose level Middle, time 14 day
[5] = 300 mg/kg, […], dose level Middle, time 28 day

SMILES: O=C(O)c1ccccc1Nc1ccccc1 [FENAMIC ACID]
- TC [1]: 76.6 mg/dL
- TG [1]: 129.6 mg/dL
- TP [1]: 6.2 g/dL
- gamma-GTP [1]: 1 IU/L
- TERMINAL_BW [2]: 241.8 g
- APTT [2]: 15.8 s
- Bas [2]: 0.4%
- Eos [2]: 1%
- Fbg [2]: 293.6 mg/dL
- Hb [2]: 13.4 g/dL
- Ht [2]: 40.1%
- Lym [2]: 74.2%
- MCH [2]: 20.9 pg
- MCHC [2]: 33.4%
- MCV [2]: 62.8 fL
- Mono [2]: 2.8%
- Neu [2]: 21.8%
- PT [2]: 14 s
- Plat [2]: 137.1 x10_4/uL
- RBC [2]: 639.6 x10_4/ul
- Ret [2]: 6.8%
- WBC [2]: 91.3 x10_2/uL
- KIDNEY_L [2]: 1 g
- KIDNEY_R [2]: 1 g
- KIDNEY_TOTAL [2]: 1.9 g
- LIVER [2]: 12 g
- A/G [2]: 0.9
- ALP [2]: 1538.8 IU/L
- ALT [2]: 37.4 IU/L
- AST [2]: 64.8 IU/L
- BUN [2]: 14.2 mg/dL
- CRE [2]: 0.2 mg/dL
- Ca [2]: 11.6 mg/dL
- Cl [2]: 105.8 meq/L
- GLC [2]: 183 mg/dL
- IP [2]: 6.4 mg/dL
- K [2]: 4.3 meq/L
- LDH [2]: 119.8 IU/L
- Na [2]: 142.8 meq/L
- PL [2]: 156 mg/dL
- RALB [2]: 2.7 g/dL
- TC [2]: 82.4 mg/dL
- TG [2]: 99.4 mg/dL
- TP [2]: 5.7 g/dL
- gamma-GTP [2]: 1.6 IU/L
- TERMINAL_BW [3]: 275.7 g
- TERMINAL_BW [4]: 344.9 g
- TERMINAL_BW [5]: 435 g
- APTT [3]: 16.6 s
- Bas [3]: 0.6%
- Eos [3]: 1.2%
- Fbg [3]: 313 mg/dL
- Hb [3]: 13.6 g/dL
- Ht [3]: 40.4%
- Lym [3]: 80.6%
- MCH [3]: 20.8 pg
- MCHC [3]: 33.7%
- MCV [3]: 61.5 fL
- Mono [3]: 2.4%
- Neu [3]: 15.2%
- PT [3]: 13.9 s
- Plat [3]: 137.6 x10_4/uL
- RBC [3]: 656.8 x10_4/ul
- Ret [3]: 6.2%
- WBC [3]: 89.7 x10_2/uL
- APTT [4]: 15.8 s
- Bas [4]: 0.8%
- Eos [4]: 0.8%
- Fbg [4]: 296 mg/dL
- Hb [4]: 14.4 g/dL
- Ht [4]: 42.2%
- Lym [4]: 79.8%
- MCH [4]: 20.1 pg
- MCHC [4]: 34.2%
- MCV [4]: 58.6 fL
- Mono [4]: 2.2%
- Neu [4]: 16.4%
- PT [4]: 13.8 s
- Plat [4]: 131.5 x10_4/uL
- RBC [4]: 719.6 x10_4/ul
- Ret [4]: 4.7%
- WBC [4]: 104.7 x10_2/uL
- APTT [5]: 17.6 s
- Bas [5]: 0.4%
- Eos [5]: 1.4%
- Fbg [5]: 314.2 mg/dL
- Hb [5]: 14.8 g/dL
- Ht [5]: 42.7%
- Lym [5]: 79.8%
- MCH [5]: 18.8 pg
- MCHC [5]: 34.7%
- MCV [5]: 54.1 fL
- Mono [5]: 2.6%
- Neu [5]: 15.8%
- PT [5]: 14.1 s
- Plat [5]: 119.3 x10_4/uL
- RBC [5]: 789.8 x10_4/ul
- Ret [5]: 2.7%
- WBC [5]: 92.3 x10_2/uL
- KIDNEY_L [3]: 1.3 g
- KIDNEY_R [3]: 1.2 g
- KIDNEY_TOTAL [3]: 2.5 g
- KIDNEY_L [4]: 1.4 g
- KIDNEY_R [4]: 1.4 g
- KIDNEY_TOTAL [4]: 2.7 g
- KIDNEY_L [5]: 1.5 g
- KIDNEY_R [5]: 1.5 g
- KIDNEY_TOTAL [5]: 3 g
- LIVER [3]: 13.4 g
- LIVER [4]: 16.2 g
- LIVER [5]: 19 g
- A/G [3]: 0.9
- ALP [3]: 1312 IU/L
- ALT [3]: 36.6 IU/L
- AST [3]: 63.4 IU/L
- BUN [3]: 26.8 mg/dL
- CRE [3]: 0.3 mg/dL
- Ca [3]: 11.8 mg/dL
- Cl [3]: 103.8 meq/L
- GLC [3]: 185 mg/dL
- IP [3]: 7 mg/dL
- K [3]: 4.6 meq/L
- LDH [3]: 108 IU/L
- Na [3]: 143.6 meq/L
- PL [3]: 150.4 mg/dL
- RALB [3]: 2.8 g/dL
- TC [3]: 80.8 mg/dL
- TG [3]: 91.6 mg/dL
- TP [3]: 6 g/dL
- gamma-GTP [3]: 1.6 IU/L
- A/G [4]: 0.8
- ALP [4]: 1463.6 IU/L
- ALT [4]: 36.8 IU/L
- AST [4]: 58.4 IU/L
- BUN [4]: 15.8 mg/dL
- CRE [4]: 0.3 mg/dL
- Ca [4]: 11.3 mg/dL
- Cl [4]: 104 meq/L
- GLC [4]: 178 mg/dL
- IP [4]: 6.5 mg/dL
- K [4]: 4 meq/L
- LDH [4]: 102.2 IU/L
- Na [4]: 144.2 meq/L
- PL [4]: 160.8 mg/dL
- RALB [4]: 2.8 g/dL
- TC [4]: 80.8 mg/dL
- TG [4]: 117.2 mg/dL
- TP [4]: 6.2 g/dL
- gamma-GTP [4]: 1.2 IU/L
- A/G [5]: 0.8
- ALP [5]: 942.2 IU/L
- ALT [5]: 31 IU/L
- AST [5]: 53.2 IU/L
- BUN [5]: 15.6 mg/dL
- CRE [5]: 0.3 mg/dL
- Ca [5]: 11.3 mg/dL
- Cl [5]: 103.8 meq/L
- GLC [5]: 186.6 mg/dL
- IP [5]: 6.7 mg/dL
- K [5]: 4 meq/L
- LDH [5]: 107.6 IU/L
- Na [5]: 144.6 meq/L
- PL [5]: 161.8 mg/dL
- RALB [5]: 2.9 g/dL
- TC [5]: 82.2 mg/dL
- TG [5]: 100.8 mg/dL
